These results are taken from patent US11046700B2, “Substituted imidazo[1,2-a]pyrazines, pyrazolo[1,5-c]pyrimidines, pyrazolo[1,5-a]pyridines, and purines for the treatment of schistosomiasis” (Merck Patent GmbH, priority 2017, dated 2021).

Series [1] has as its system S. mansoni juvenile worms. The series can be described thus: Mouse infection model, juvenile worms, oral treatment day 25 post infection, worm recovery. The series is classed as in vivo, Schistosoma mansoni. The note with it: mice. How it is done:
Methods for the subcutaneous infection of mice and subsequent worm recovery were as described in Mansour et al (2016) except that infection was with 150 cercariae and the perfusion medium was citrate saline (0.9% sodium chloride, 1.5% tri-sodium citrate). Perfusion was carried out 8 days (adult infections) or 15 days (juvenile infections) after treatment. Perfuseate was collected into 30 mL universal tubes. RBC (Red Blood Cells) were removed by allowing the perfuseate to settle for 10 min, removal of most of the supernatant and washing once as above with 10 mL perfusion medium. A drop of dilute aqueous saponin solution was added to lyse any remaining RBC and the worm suspension poured into a grid-marked small petri dish. The tube was rinsed out into the petri dish and examined for any remaining worms. Worms were counted using a dissecting microscope. The mouse livers removed after perfusion were squashed between two thick glass plates and examined visually and any remaining worms added to those counted as above.
For testing efficacy against the juvenile worms, treatment was on day 25 post infection and for testing against the adult worms on day 42 post infection. Drugs were suspended in 7% Tween-80/3% Ethanol/double distilled water and drug dispersal was facilitated by vortexing and using a sonicating water bath (Formulation F1). Alternatively, drugs were suspended in 10% DMSO, 90% double distilled water containing 50 mM Na2HPO4 with 0.5% Tween-80 by first dissolving or suspending the drug in DMSO then adding the DMSO solution/suspension to the aqueous solution (Formulation F2). In a further set of conditions, drugs were first dissolved in DMSO, then diluted with corn oil to give a 5% DMSO+drug solution/suspension (Formulation F3)
The drug solution/suspensions were given by oral gavage at the rate of 10 ml/kg. Positive controls (artemether for juvenile worms and praziquantel for adult worms) were used in each experiment.

Series [2] concerns S. mansoni juvenile worms. The series can be described thus: In vitro assay, S. mansoni juvenile worms. To be noted: Schistosoma mansoni; S. mansoni juvenile worms, in vitro; read-out: (b) Juvenile. The series is classed as cell-based. How it is done: (§1) The routine biological assays using adult or juvenile worms and cytotoxicity assays using MRC-5 cells have been disclosed previously in Mansour, N. R., et al. (2016). “High Throughput Screening Identifies Novel Lead Compounds with Activity against Larval, Juvenile and Schistosoma mansoni PLoS Negl Trap Dis 10(4): e0004659. Cytotoxicity assays using the HepG2 cell line were carried out as described in Molecular Diversity (2015) 19, 251-261.
(b) S. mansoni juvenile worms

For a further series, the system named is HepG2 cell line. Briefly: Cytotoxicity against human HepG2 cell lines. Type of series: cell-based.
A further series concerns S. mansoni adult worms. The series can be described thus: In vitro assay, S. mansoni adult worms. Type of series: cell-based. To be noted: Schistosoma mansoni; S. mansoni adult worms, in vitro; read-out: (a) Adult. As for the experimental part: as §1
(a) S. mansoni adult worms

[3] abbreviates: oral 400 mg/kg, Formulation F1, negative control 33.0 ± 7.2.
Setting [4] is: oral 400 mg/kg, Formulation F1, negative control 33.2 ± 9.09.
The mark [5] stands for this setting: oral 25 mg/kg, Formulation F1, negative control 33.2 ± 9.09.
The mark [6] stands for this setting: oral 25 mg/kg, Formulation F2, negative control 33.2 ± 9.09.
Setting [7] is: oral 50 mg/kg, Formulation F1, negative control 33.0 ± 7.2.

In series [1] (setting [3]), `CO[C@H]1O[C@@H]2O[C@@]3(C)CC[C@H]4[C@H](C)CC[C@@H]([C@H]1C)[C@@]24OO3` [Artemether, artemether, reference compound] gave a Mean worm recovery of 8.2 ± 4.1 and a Percent worm reduction of 75%. In series [1] (setting [4]), this molecule yielded a Mean worm recovery of 8.6 ± 4.16 and a Percent worm reduction of 74%.
`CCc1nc2cnc(-c3ccc(F)c(C(F)(F)C(F)(F)F)c3)cn2c1-c1c(F)cc(O)cc1F` [Example 45, 4-{2-ethyl-6-[4-fluoro-3-(1,1,2,2,2-pentafluoroethyl)phenyl]imidazo[1,2-a]pyrazin-3-yl}-3,5-difluorophenol]: in series [2], the IC50 amounted to 21 nM. In series [1] (setting [5]), this molecule showed a Mean worm recovery of 31.8 ± 5.76 and a Percent worm reduction of 4%.
On to `CC(C)c1nc2cnc(-c3ccc(F)c(C(F)(F)F)c3)cn2c1-c1ccc2[nH]ncc2c1F` [Example 2, 4-fluoro-5-{6-[4-fluoro-3-(trifluoromethyl)phenyl]-2-(propan-2-yl)imidazo[1,2-a]pyrazin-3-yl}-1H-indazole], for which the IC50 in series [2] was 19 nM; in the series on S. mansoni adult worms, 47 nM. The “(e) Cytotox HepG2” value with HepG2 cell line was 10.4 µM. For the same molecule, the Mean worm recovery turned out to be 7.2 ± 3.9 in series [1] (setting [5]), 4.4 ± 3.91 in series [1] (setting [6]) and 4.0 ± 4.1 in series [1] (setting [7]). Moreover, the results for the Percent worm reduction in series [1] (setting [5]), in series [1] (setting [6]) and in series [1] (setting [7]) were 78%, 87% and 88%, respectively.
Take `Oc1cc(F)c(-c2c(C3CC3)nc3cnc(-c4ccc(F)c(C(F)(F)F)c4)cn23)c(F)c1` [Example 34, 4-(2-cyclopropyl-6-(4-fluoro-3-(trifluoromethyl)phenyl)imidazo[1,2-a]pyrazin-3-yl)-3,5-difluorophenol]: in series [2], the IC50 came to 88 nM. Also, the “(e) Cytotox HepG2” value in the series on HepG2 cell line worked out at 8.9 µM. Besides, in series [1] (setting [7]), the Mean worm recovery is 24.8 ± 7.4 and the Percent worm reduction was found to be 25%. Further, in the series on S. mansoni adult worms, the IC50 was found to be 69 nM.
Regarding `CC(C)c1cc(-c2cn3c(-c4ccc5[nH]ncc5c4Cl)c(C(F)(F)F)nc3cn2)ccc1F` [Example 83, 3-(4-Chloro-1H-indazol-5-yl)-6-(4-fluoro-3-isopropyl-phenyl)-2-trifluoromethyl-imidazo[1,2-a]pyrazine], the results for the IC50 (in series [2]; with S. mansoni adult worms) were 15 nM and under 12 nM, respectively. Further, the “(e) Cytotox HepG2” value with HepG2 cell line came to 6.6 µM.
As to `CC(C)c1nc2cnc(-c3cccc(C(F)(F)F)c3)cn2c1-c1ccc2[nH]ncc2c1F` [Example 21, 4-fluoro-5-{2-propan-2-yl-6-[3-trifluoromethylphenyl]imidazo[1,2-a]pyrazin-3-yl}-1H-indazole], the IC50 in series [2] was 51 nM; in the series on S. mansoni adult worms, 37 nM. Besides, the “(e) Cytotox HepG2” value in the series on HepG2 cell line was determined as 15.1 µM.
The matching figures for `CCc1nc2cnc(-c3ccc(F)c(C(F)(F)F)c3)cn2c1-c1c(F)cc(O)cc1F` [Example 36, 3,5-difluoro-4-[2-ethyl-6-[4-fluoro-3-(trifluoromethyl)phenyl]imidazo[1,2-a]pyrazin-3-yl]phenol]: 51 nM, 53 nM and 8.3 µM.
Turning to `COc1ccc(-c2c(C(F)(F)F)nc3cnc(-c4cccc(C(F)(F)C(F)(F)F)c4)cn23)cc1O` [Example 30, 2-methoxy-5-[2-(trifluoromethyl)-6-[3-(pentafluoroethyl)phenyl]imidazo[1,2-a]pyrazin-3-yl]phenol], the IC50 in series [2] is under 12 nM; with S. mansoni adult worms, 21 nM. Further, in the series with HepG2 cell line, the “(e) Cytotox HepG2” value was 11.1 µM.
For `Oc1cc(F)c(-c2c(C3CCC3)nc3cnc(-c4ccc(F)c(C(F)(F)F)c4)cn23)c(F)c1` [Example 35, 4-(2-cyclobutyl-6-(4-fluoro-3-(trifluoromethyl)phenyl)imidazo[1,2-a]pyrazin-3-yl)-3,5-difluorophenol], the figures for the IC50 (in series [2]; in the series with S. mansoni adult worms) were 73 nM and 59 nM, respectively. In addition, the “(e) Cytotox HepG2” value in the series on HepG2 cell line was 5.7 µM.
As for `CC(C)c1nc2cnc(-c3cccc(S(F)(F)(F)(F)F)c3)cn2c1-c1c(F)cc(O)cc1F` [Example 39, 3,5-difluoro-4-[2-(propan-2-yl)-6-[3-(pentafluorosulfanyl)phenyl]imidazo[1,2-a]pyrazin-3-yl]phenol], the IC50 in series [2] is under 12 nM; with S. mansoni adult worms it was 24 nM. For the same molecule, in the series with HepG2 cell line, the “(e) Cytotox HepG2” value came out at 6.6 µM.
As to `CC(C)c1nn2cnc(-c3cccc(C(F)(F)F)c3)cc2c1-c1c(F)cc(O)cc1F` [Example 24, 3,5-difluoro-4-(2-isopropyl-5-(3-(trifluoromethyl)phenyl)pyrazolo[1,5-c]pyrimidin-3-yl)phenol], the IC50 in series [2] was under 12 nM; in the series with S. mansoni adult worms, 22 nM. Also, the “(e) Cytotox HepG2” value in the series on HepG2 cell line was 8.4 µM.
Take `Fc1ccc(-c2cn3c(-c4ccc5[nH]ncc5c4F)c(C4CC4)nc3cn2)cc1C(F)(F)F` [Example 32]: the “(e) Cytotox HepG2” value in the series with HepG2 cell line worked out at 16.1 µM. In series [1] (setting [7]), this molecule returned a Mean worm recovery of 29.0 ± 7.9 and a Percent worm reduction of 12%. In addition, the IC50 in the series with S. mansoni adult worms came to 63 nM.
Regarding `CC(C)c1nn2cnc(-c3ccc(F)c(C(F)(F)C(F)(F)F)c3)cc2c1-c1ccc2[nH]ncc2c1F` [Example 58, 3-(4-Fluoro-1H-indazol-5-yl)-5-(4-fluoro-3-pentafluoroethyl-phenyl)-2-isopropylpyrazolo[1,5-c]pyrimidine], the results for the IC50 (in series [2]; in the series with S. mansoni adult worms) were 20 nM and 31 nM, respectively. In addition, in the series on HepG2 cell line, the “(e) Cytotox HepG2” value worked out at 10.8 µM.
Turning to `CC(C)c1cc(-c2cn3c(-c4ccc5[nH]ncc5c4F)c(C4CC4)nc3cn2)ccc1F` [Example 79, 2-Cyclopropyl-3-(4-fluoro-1H-indazol-5-yl)-6-(4-fluoro-3-isopropyl-phenyl)-imidazo[1,2-a]pyrazine], the IC50 (in series [2]; with S. mansoni adult worms) was 5 nM throughout. In the series with HepG2 cell line, the “(e) Cytotox HepG2” value is 15.7 µM.
With `Fc1c(-c2c(C(F)(F)F)nc3cnc(-c4cccc(OC(F)(F)F)c4)cn23)ccc2[nH]ncc12` [Example 72, 3-(4-Fluoro-1H-indazol-5-yl)-6-(3-trifluoromethoxy-phenyl)-2-trifluoromethyl-imidazo[1,2-a]pyrazine], the IC50 in series [2] was 23 nM; in the series on S. mansoni adult worms, 21 nM. Also, the “(e) Cytotox HepG2” value in the series on HepG2 cell line stood at 9.7 µM.
With `CC1(c2nc3cnc(-c4ccc(F)c(C(F)(F)F)c4)cn3c2-c2c(F)cc(O)cc2F)CC1` [Example 33, 3,5-difluoro-4-[2-(1-methyl-cycloprop-1-yl)-6-[4-fluoro-3-(trifluoromethyl)phenyl]imidazo[1,2-a]pyrazin-3-yl]phenol], the IC50 in series [2] worked out at 80 nM; with S. mansoni adult worms, 56 nM. Also, in the series on HepG2 cell line, the “(e) Cytotox HepG2” value came out at 7.9 µM.
The matching figures for `Fc1ccc(-c2cn3c(-c4ccc5[nH]ncc5c4F)c(C(F)(F)F)nc3cn2)cc1C1CCC1` [Example 82, 6-(3-Cyclobutyl-4-fluoro-phenyl)-3-(4-fluoro-1H-indazol-5-yl)-2-trifluoromethyl-imidazo[1,2-a]pyrazine]: 59 nM, 45 nM and 6.1 µM.
The matching figures for `CC(C)c1nc2cnc(-c3ccc(F)c(C(F)(F)F)c3)nc2n1-c1c(F)cc(O)cc1F` [Example 89, 3,5-Difluoro-4-[2-(4-fluoro-3-trifluoromethyl-phenyl)-8-isopropyl-purin-9-yl]-phenol]: 128 nM, 71 nM and 4.8 µM.
Regarding `Fc1ccc(-c2cn3c(-c4ccc5[nH]ncc5c4F)c(C(F)(F)F)nc3cn2)cc1CC(F)(F)F` [Example 69, 3-(4-Fluoro-1H-indazol-5-yl)-6-[4-fluoro-3-(2,2,2-trifluoro-ethyl)-phenyl]-2-trifluoromethyl-imidazo[1,2-a]pyrazine], the values for the IC50 (in series [2]; with S. mansoni adult worms) were 10 nM and 12 nM, respectively. In addition, the “(e) Cytotox HepG2” value with HepG2 cell line was found to be 5.3 µM.
On to `Fc1ccc(-c2cn3c(-c4ccc5[nH]ncc5c4F)c(C(F)(F)F)nc3cn2)cc1OC(F)(F)F` [Example 71, 3-(4-Fluoro-1H-indazol-5-yl)-6-(4-fluoro-3-trifluoromethoxy-phenyl)-2-trifluoromethyl-imidazo[1,2-a]pyrazine], for which the IC50 in series [2] was determined as 21 nM; with S. mansoni adult worms, 14 nM. In the series on HepG2 cell line, the “(e) Cytotox HepG2” value is 12.2 µM.
